# According to paper PMC11324517 (Nature, 2024):
# Where a chain is given by its changes, count along the chain named. Values joined by “and” are separate entries in the source; they are usually repeats but may differ in a detail not shown here. Identical values can stand only once. “Also recorded” adds a separate entry of the source. Like-named read-outs stand apart in the source and are kept apart here.
# How the values were obtained:
# full-length hDAT = full-length hDAT (Homo sapiens, UniProt Q01959); settings: background not subtracted
# Chain of full-length hDAT (Q01959 whole entry): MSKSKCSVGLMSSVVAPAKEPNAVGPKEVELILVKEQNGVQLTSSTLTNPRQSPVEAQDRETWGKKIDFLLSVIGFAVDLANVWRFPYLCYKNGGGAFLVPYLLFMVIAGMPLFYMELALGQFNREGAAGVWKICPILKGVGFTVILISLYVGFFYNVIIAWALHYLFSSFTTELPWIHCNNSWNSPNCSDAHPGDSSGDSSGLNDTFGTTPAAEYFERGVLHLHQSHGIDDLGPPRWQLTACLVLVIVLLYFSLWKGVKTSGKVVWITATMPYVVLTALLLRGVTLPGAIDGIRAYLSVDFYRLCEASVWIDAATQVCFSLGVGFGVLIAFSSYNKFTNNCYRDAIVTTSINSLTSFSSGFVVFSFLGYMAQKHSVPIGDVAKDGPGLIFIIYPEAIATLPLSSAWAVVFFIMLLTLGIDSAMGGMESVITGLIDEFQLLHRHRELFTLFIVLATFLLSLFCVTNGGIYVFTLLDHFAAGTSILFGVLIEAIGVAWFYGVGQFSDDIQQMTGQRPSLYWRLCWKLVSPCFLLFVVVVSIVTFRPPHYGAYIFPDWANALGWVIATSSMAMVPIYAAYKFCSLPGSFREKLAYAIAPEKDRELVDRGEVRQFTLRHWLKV
# Description: (§1) HEK293 GnTI^− cells were transduced with Δ-hDAT and full-length hDAT P2 viruses, propagated in SF9 cells using standard methods as described in ‘Protein expression and purification’, at a cell density of 2.5 – 3.0 × 10^6 cells per ml, followed by incubation at 37 °C for 6 h. After 6 h, sodium butyrate was added to a final concentration of 10 mM, and the cells were transferred to 30 °C with 8% CO2 for 6 h. The transduced cells were seeded into 96-well poly-D-lysine coated Isoplates (Perkin Elmer) at a density of 100,000 cells per well. The plates were then incubated at 30 °C for 12–16 h before the uptake assay was initiated. The cells were initially washed with 37 °C uptake assay buffer composed of 25 mM HEPES pH 7.4, 120 mM NaCl, 5 mM KCl, 1.2 mM CaCl2, 1.2 mM MgSO4, 5 mM D-glucose, 1 mM ascorbic acid, and 1 µM Ro 41-0960, followed by incubation in 50 µl of the same buffer for 10 min. Replicates with 10 µM of GBR12909 in the uptake assay buffer were used to measure background. […] The uptake reaction was stopped by adding 100 µl of chilled inhibition buffer, uptake assay buffer supplemented with 2.5 µM GBR12909. Two consecutive washes with 100 µl of inhibition buffer were carried out, followed by resuspension of cells in 100 µl of 1% Triton X-100. Finally, 100 µl of liquid scintillation cocktail was added to each well and [^3H] counts were measured using a MicroBeta2 (Perkin Elmer). Background counts from three replicates were averaged and subtracted from total counts.
# ∆-hDAT D385A = ∆-hDAT D385A (Homo sapiens, UniProt Q01959, D385A/I248Y); settings: MRS7292 30 µM; [3H]dopamine uptake, Figure 2d raw data
# Chain of ∆-hDAT D385A (Q01959 57-620 I248Y/D385A limits assumed): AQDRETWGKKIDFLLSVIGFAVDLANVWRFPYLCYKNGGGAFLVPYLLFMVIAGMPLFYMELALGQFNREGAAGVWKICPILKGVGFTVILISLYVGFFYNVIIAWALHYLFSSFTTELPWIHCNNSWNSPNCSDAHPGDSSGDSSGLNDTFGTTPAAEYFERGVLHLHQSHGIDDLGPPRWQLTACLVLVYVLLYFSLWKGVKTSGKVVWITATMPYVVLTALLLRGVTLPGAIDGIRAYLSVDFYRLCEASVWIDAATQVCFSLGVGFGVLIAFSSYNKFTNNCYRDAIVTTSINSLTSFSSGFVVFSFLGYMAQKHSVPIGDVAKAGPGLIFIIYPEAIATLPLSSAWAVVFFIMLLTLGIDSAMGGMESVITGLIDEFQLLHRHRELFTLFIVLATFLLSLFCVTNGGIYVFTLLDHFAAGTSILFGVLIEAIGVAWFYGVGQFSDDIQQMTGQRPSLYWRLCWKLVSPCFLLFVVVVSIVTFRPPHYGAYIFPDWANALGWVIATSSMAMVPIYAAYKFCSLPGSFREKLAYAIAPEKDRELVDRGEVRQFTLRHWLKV
# Description: (§2) Replicates containing 10 µM of GBR12909 were used to measure background. […] Uptake was quenched by adding 50 µl of ice-cold inhibition buffer.
# (§3) Specific counts were obtained by subtracting background counts (averaged from technical triplicates) from total counts. […] Data were collected from three independent experiments (n = 3 biological replicates starting from transduction), each performed with three technical replicates.
# ∆-hDAT Y394F = ∆-hDAT Y394F (Homo sapiens, UniProt Q01959, I248Y/Y394F); settings: for Y394F total (raw [3H]dopamine uptake counts): Extended Data Fig 7c source data, replicates 1-3
# Chain of ∆-hDAT Y394F (Q01959 57-620 I248Y/Y394F limits assumed): as the sequence (Q01959 57-620 I248Y/D385A limits assumed) above, with A329D, Y338F counted along it
# Description: as §2, §3
# ∆-hDAT V364I/I390L = ∆-hDAT V364I/I390L (Homo sapiens, UniProt Q01959, I248Y/I390L/V364I); settings: MRS7292 10 µM; [3H]dopamine uptake, Figure 2d raw data
# Chain of ∆-hDAT V364I/I390L (Q01959 57-620 I248Y/V364I/I390L limits assumed): as the sequence (Q01959 57-620 I248Y/D385A limits assumed) above, with V308I, A329D, I334L counted along it
# Description: as §2, §3
# ∆-hDAT V364I = ∆-hDAT V364I (Homo sapiens, UniProt Q01959, I248Y/V364I); settings: [3H]dopamine uptake, Figure 2d raw data
# Chain of ∆-hDAT V364I (Q01959 57-620 I248Y/V364I limits assumed): as the sequence (Q01959 57-620 I248Y/D385A limits assumed) above, with V308I, A329D counted along it
# Description: as §2, §3
# ∆-hDAT W84C = molecular target: T1, ∆-hDAT W84C (Homo sapiens, UniProt Q01959, I248Y/W84C); settings: for W84C total (raw [3H]dopamine uptake counts): Extended Data Fig 7c source data, replicates 1-3
# T1 sequence (Q01959 57-620 W84C/I248Y limits assumed): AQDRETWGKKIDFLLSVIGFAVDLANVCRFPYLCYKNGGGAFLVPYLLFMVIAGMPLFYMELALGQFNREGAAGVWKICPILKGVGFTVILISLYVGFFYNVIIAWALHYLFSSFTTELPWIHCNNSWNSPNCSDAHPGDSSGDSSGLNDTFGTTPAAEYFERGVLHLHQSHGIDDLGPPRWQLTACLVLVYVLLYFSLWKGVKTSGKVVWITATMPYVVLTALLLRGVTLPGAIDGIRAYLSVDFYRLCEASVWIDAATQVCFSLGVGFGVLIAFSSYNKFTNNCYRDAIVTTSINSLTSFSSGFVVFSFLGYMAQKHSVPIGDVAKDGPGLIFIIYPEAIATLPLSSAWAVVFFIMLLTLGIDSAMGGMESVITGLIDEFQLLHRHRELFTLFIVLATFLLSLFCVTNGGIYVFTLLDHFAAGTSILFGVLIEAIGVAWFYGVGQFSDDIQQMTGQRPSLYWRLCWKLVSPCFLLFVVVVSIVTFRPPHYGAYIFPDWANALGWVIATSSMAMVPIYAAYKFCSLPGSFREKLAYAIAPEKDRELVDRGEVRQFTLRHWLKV
# Description: as §2, §3
# ∆-hDAT I390L = ∆-hDAT I390L (Homo sapiens, UniProt Q01959, I248Y/I390L); settings: [3H]dopamine uptake
# Chain of ∆-hDAT I390L (Q01959 57-620 I248Y/I390L limits assumed): as the sequence (Q01959 57-620 I248Y/D385A limits assumed) above, with A329D, I334L counted along it
# Description: as §2, §3
# ∆-hDAT W84A = molecular target: T2, ∆-hDAT W84A (Homo sapiens, UniProt Q01959, I248Y/W84A); settings: for W84A total (raw [3H]dopamine uptake counts): Extended Data Fig 7c source data, replicates 1-3
# T2 sequence (Q01959 57-620 W84A/I248Y limits assumed): T1 sequence (Q01959 57-620 W84C/I248Y limits assumed) with C28A
# Description: as §2, §3
# ∆-hDAT = ∆-hDAT (Homo sapiens, UniProt Q01959, I248Y); settings: 10 µM MRS7292, [3H]DA 0.185 uM, background not subtracted
# Chain of ∆-hDAT (Q01959 57-620 I248Y limits assumed): as the sequence (Q01959 57-620 I248Y/D385A limits assumed) above, with A329D counted along it
# Description: as §1
# ∆-hDAT D385N = ∆-hDAT D385N (Homo sapiens, UniProt Q01959, D385N/I248Y); settings: D385N versus ∆-hDAT
# Chain of ∆-hDAT D385N (Q01959 57-620 I248Y/D385N limits assumed): as the sequence (Q01959 57-620 I248Y/D385A limits assumed) above, with A329N counted along it
# Description: as §2, §3
compound,measurement,setting,value
CNc1nc(C#Cc2ccc(Cl)s2)nc2c1ncn2[C@H]1[C@H](O)[C@H](O)[C@]2(C(=O)OC)C[C@H]12 [MRS7292],"[3H]DA Uptake - Full length hDAT, total counts - 10 µM MRS7292","full-length hDAT; 10 µM MRS7292, [3H]DA 0.0068 uM",10 cpm and 11 cpm and 8 cpm and 14 cpm and 9 cpm and 16 cpm
same,"[3H]DA Uptake - Full length hDAT, total counts - 10 µM MRS7292","full-length hDAT; 10 µM MRS7292, [3H]DA 0.061 uM",13 cpm and 18 cpm and 14 cpm and 10 cpm and 16 cpm and 15 cpm and 19 cpm and 17 cpm
same,"[3H]DA Uptake - Full length hDAT, total counts - 10 µM MRS7292","full-length hDAT; 10 µM MRS7292, [3H]DA 0.185 uM",25 cpm and 15 cpm and 20 cpm and 27 cpm and 21 cpm and 23 cpm and 22 cpm
same,"[3H]DA Uptake - Full length hDAT, total counts - 10 µM MRS7292","full-length hDAT; 10 µM MRS7292, [3H]DA 1.66 uM",65 cpm and 83 cpm and 90 cpm and 75 cpm and 88 cpm and 55 cpm and 51 cpm and 66 cpm
same,D385A total,∆-hDAT D385A,286 and 316 and 337 and 362 and 408 and 403 and 257 and 320
same,Y394F total (raw [3H]dopamine uptake counts),∆-hDAT Y394F; MRS7292 1e-6 µM,1962 and 2141 and 2109 and 2218 and 1876 and 2149 and 2315 and 2380 and 2515
same,Y394F total (raw [3H]dopamine uptake counts),∆-hDAT Y394F; MRS7292 0.041 µM,2021 and 1947 and 2451 and 1672 and 1475 and 1990 and 5167 and 4746
same,Y394F total (raw [3H]dopamine uptake counts),∆-hDAT Y394F; MRS7292 0.123 µM,2135 and 2187 and 2249 and 1538 and 1496 and 1463 and 3048 and 2825 and 2648
same,Y394F total (raw [3H]dopamine uptake counts),∆-hDAT Y394F; MRS7292 0.37 µM,2258 and 2255 and 2215 and 1771 and 1434 and 1467 and 2327 and 2753 and 2672
same,Y394F total (raw [3H]dopamine uptake counts),∆-hDAT Y394F; MRS7292 1.11 µM,1683 and 2000 and 1961 and 1802 and 1518 and 1933 and 2789 and 2557 and 2651
same,Y394F total (raw [3H]dopamine uptake counts),∆-hDAT Y394F; MRS7292 3.33 µM,2058 and 2080 and 2545 and 1969 and 2086 and 2231 and 2762 and 2184 and 1914
same,Y394F total (raw [3H]dopamine uptake counts),∆-hDAT Y394F; MRS7292 10 µM,2191 and 2728 and 2379 and 1871 and 1698 and 1883 and 2721 and 2825 and 2576
same,Y394F total (raw [3H]dopamine uptake counts),∆-hDAT Y394F; MRS7292 30 µM,1926 and 2280 and 2146 and 1689 and 1287 and 1345 and 2421 and 2231 and 2505
same,effect of mutation on potency of MRS7292 (inhibition of dopamine uptake),∆-hDAT Y394F; Y394F versus ∆-hDAT,diminishes the potency; also recorded: severe loss of MRS7292 activity
same,I390L-V364I total,∆-hDAT V364I/I390L,85 and 69 and 75 and 62 and 48 and 60 and 76 and 66
same,V364I total,∆-hDAT V364I; MRS7292 1e-6 µM,5751 and 5593 and 5760 and 5223 and 5698 and 5483 and 5457 and 5433
same,V364I total,∆-hDAT V364I; MRS7292 10 µM,65 and 56 and 61 and 57 and 59 and 73 and 84 and 89
same,V364I total,∆-hDAT V364I; MRS7292 30 µM,24 and 25 and 29 and 37 and 23 and 36 and 26
same,W84C total (raw [3H]dopamine uptake counts),∆-hDAT W84C; MRS7292 1e-6 µM,4594 and 4467 and 4710 and 3850 and 4193 and 4029 and 4760 and 5939 and 5408
same,W84C total (raw [3H]dopamine uptake counts),∆-hDAT W84C; MRS7292 0.041 µM,5542 and 4901 and 4879 and 3714 and 3791 and 3749 and 5161 and 5312 and 5150
same,W84C total (raw [3H]dopamine uptake counts),∆-hDAT W84C; MRS7292 0.123 µM,5015 and 4917 and 5068 and 3749 and 3676 and 3489 and 6082 and 6141 and 5806
same,W84C total (raw [3H]dopamine uptake counts),∆-hDAT W84C; MRS7292 0.37 µM,4864 and 5475 and 5004 and 3395 and 4058 and 4217 and 6996 and 6040 and 6103
same,W84C total (raw [3H]dopamine uptake counts),∆-hDAT W84C; MRS7292 1.11 µM,4560 and 4192 and 4804 and 2868 and 3597 and 3884 and 6157 and 6005
same,W84C total (raw [3H]dopamine uptake counts),∆-hDAT W84C; MRS7292 3.33 µM,5290 and 5001 and 5041 and 3941 and 4001 and 3991 and 5807 and 6342 and 6018
same,W84C total (raw [3H]dopamine uptake counts),∆-hDAT W84C; MRS7292 10 µM,5439 and 5725 and 4868 and 3830 and 4200 and 4303 and 5849 and 6416 and 6207
same,W84C total (raw [3H]dopamine uptake counts),∆-hDAT W84C; MRS7292 30 µM,4716 and 4588 and 4467 and 3448 and 3565 and 3579 and 4954 and 3057 and 4610
same,effect of mutation on potency of MRS7292 (inhibition of dopamine uptake),∆-hDAT W84C; W84C versus ∆-hDAT,severely compromises the potency; also recorded: severe loss of MRS7292 activity
same,change in IC50 of MRS7292 versus ∆-hDAT,∆-hDAT I390L; I390L mutant,modest increase in the IC50 value; also recorded: increased IC50
same,I390L total counts,"∆-hDAT I390L; MRS7292 30 µM, Figure 2d raw data",109 counts and 108 counts and 83 counts and 89 counts and 68 counts and 75 counts and 87 counts and 88 counts
same,W84A total (raw [3H]dopamine uptake counts),∆-hDAT W84A; MRS7292 1e-6 µM,4895 and 4792 and 4802 and 4600 and 4953 and 4373 and 5070 and 4982 and 5054
same,W84A total (raw [3H]dopamine uptake counts),∆-hDAT W84A; MRS7292 0.041 µM,4749 and 4230 and 4559 and 4747 and 4675 and 5103 and 5266 and 5201 and 5101
same,W84A total (raw [3H]dopamine uptake counts),∆-hDAT W84A; MRS7292 0.123 µM,4930 and 5121 and 4987 and 4751 and 4624 and 4813 and 5010 and 4838 and 4937
same,W84A total (raw [3H]dopamine uptake counts),∆-hDAT W84A; MRS7292 0.37 µM,4894 and 4668 and 4952 and 4517 and 4587 and 4491 and 5700 and 5202 and 4820
same,W84A total (raw [3H]dopamine uptake counts),∆-hDAT W84A; MRS7292 1.11 µM,4984 and 5198 and 4980 and 4949 and 4430 and 4563 and 5130 and 4679 and 4795
same,W84A total (raw [3H]dopamine uptake counts),∆-hDAT W84A; MRS7292 3.33 µM,4301 and 4523 and 4569 and 4697 and 4581 and 4993 and 4757 and 5251 and 4774
same,W84A total (raw [3H]dopamine uptake counts),∆-hDAT W84A; MRS7292 10 µM,4768 and 4277 and 4629 and 4852 and 4916 and 4947 and 5164 and 4713 and 5124
same,W84A total (raw [3H]dopamine uptake counts),∆-hDAT W84A; MRS7292 30 µM,3395 and 3824 and 4400 and 4392 and 4159 and 3949 and 4924 and 4868 and 4552
same,effect of mutation on potency of MRS7292 (inhibition of dopamine uptake),∆-hDAT W84A; W84A versus ∆-hDAT,severely compromises the potency; also recorded: severe loss of MRS7292 activity
same,"[3H]DA Uptake - Δ-hDAT, total counts - 10 µM MRS7292",∆-hDAT,20 cpm and 17 cpm and 15 cpm and 19 cpm and 12 cpm and 22 cpm
same,effect of mutation on potency of MRS7292 (inhibition of dopamine uptake),∆-hDAT D385N,retained potency; also recorded: potency of MRS7292 was maintained; also recorded: little effect
